# Measurements from patent publication US7994200B2, “Cycloalkane-substituted pyrazoline derivatives, their preparation and use as medicaments” (Laboratorios del Dr. Esteve, S.A., priority 2005, dated 2011).
# Where two headings read alike, the source gives them in different places.
# What was measured:
# [1] = molecular target: recombinant human cannabinoid 1 receptor (CB1) (Homo sapiens, UniProt P21554); experiment: [35S]GTPγS binding antagonistic assay against WIN 55,212-2, CHO cell membranes; type: biochemical; conditions: compound at 1 μM against WIN 55,212-2; 100% = effect of internal standard CB1-antagonist
# recombinant human cannabinoid 1 receptor (CB1), sequence (P21554 whole entry): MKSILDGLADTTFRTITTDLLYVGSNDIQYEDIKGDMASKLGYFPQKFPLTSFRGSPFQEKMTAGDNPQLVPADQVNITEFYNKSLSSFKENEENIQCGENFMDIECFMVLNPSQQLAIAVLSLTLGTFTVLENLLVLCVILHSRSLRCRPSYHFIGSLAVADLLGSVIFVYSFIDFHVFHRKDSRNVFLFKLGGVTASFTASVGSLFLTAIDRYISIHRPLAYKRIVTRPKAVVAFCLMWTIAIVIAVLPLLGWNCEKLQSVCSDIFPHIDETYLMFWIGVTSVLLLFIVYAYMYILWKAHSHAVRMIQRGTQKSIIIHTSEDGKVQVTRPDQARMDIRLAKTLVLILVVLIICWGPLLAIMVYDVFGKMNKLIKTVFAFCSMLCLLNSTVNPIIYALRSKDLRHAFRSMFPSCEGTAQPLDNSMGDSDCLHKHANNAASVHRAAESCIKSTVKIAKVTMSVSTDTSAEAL
# Experimental: The percentage of catalepsy is determined according of the following formula: % Catalepsy=arithmetic mean/6×100 Antagonistic Assay: Materials and Methods. Membrane Preparation:
# Chinese hamster ovary (CHO) cells stably expressing recombinant human cannabinoid 1 receptor (CB1) were cultured in nutrient mixture Ham's F 12 supplemented with 10% heat-inactivated fetal bovine serum, 2 mM L-glutamine, 50 U/ml penicillin, 50 U/ml streptomycin and 0.5 mg/ml geneticin. In order to obtain cells, culture flasks were washed twice with phosphate buffered saline and scraped. Then, cells were collected by centrifugation (200×g, 10 min) and stored dry at −80° C. Cells were homogenized in ice-cold 20 mM HEPES, 10 mM EDTA (pH 7.5) and centrifuged at 40,000×g for 15 min at 4° C. The pellet was resuspended in 20 mM HEPES, 0.1 mM EDTA (pH 7.5) and centrifuged for 15 min at 4° C. The final pellet was resuspended in 20 mM HEPES, 0.1 mM EDTA (pH 7.5), and divided in aliquots and stored at −80° C. until use.
# [^35S]GTPγS Binding Assay:
# The reaction was performed in 96-well plates. […] The incubation was terminated by rapid filtration through Millipore Multiscreen glass fiber FB, and rinsed two-times with ice-cold assay buffer. Filter plates were dried and 30 μl of scintillation liquid was added. Radioactivity was determined using Wallac Microbeta Trilux. Each experiment was performed at least in duplicate.
# The average of basal [^35S]GTPγS binding was subtracted from all binding data.
# CB1-Receptor = molecular target: T1, CB1-Receptor (Homo sapiens, UniProt P21554); experiment: In-vitro determination of affinity to CB1/CB2-Receptors, radioligand [3H]-CP55940; type: binding
# T1 construct: purchased Receptor Biology, Inc
# T1 sequence (P21554 whole entry): as above
# Experimental: Pharmacological Data: Pharmacological Methods I. In-vitro determination of affinity to CB1/CB2-Receptors
# The in-vitro determination of the affinity of the inventive quaternary ammonium salts of substituted pyrazoline compounds to CB1/CB2-Receptors is carried out as described in the publication of Ruth A. Ross, Heather C. Brockie et al., “Agonist-inverse agonist characterization at CB1 and CB2 cannabinoid receptors of L-759633, L759656 and AM630”, British Journal of Pharmacology, 126, 665-672, (1999), whereby the transfected human CB1 and CB2 receptors of Receptor Biology, Inc. are used. The radioligand used for both receptors is [^3H]-CP55940. The respective parts of the description are hereby incorporated by reference and forms part of the present disclosure.
# The affinity of the inventive substituted pyrazoline compounds to CB1/CB2 receptors was determined as described above.
# [2] = In vivo testing for antiobesic activity, acute treatment; conditions: rats, acute oral administration
# Experimental: III. In Vivo Testing for Antiobesic Activity a) Accute-Treatment
# Normally handled rats were habituated to a reversed cycle 12/12 h, and the compound as well as saline was acutely orally administered. After administration the cumulated food intake (g) was measured at 6 h and 23 h. Following that the difference in body weight between control and compound treated animals was measured.
# [3] = transfected human receptors, [3H]-CP55940, read-out: IC50
SMILES,Antagonism (%) [1] [%],IC50 (CB1-Receptor; [3]) [nM],IC50 (CB1-Receptor) [nM],activity reducing body weight [2]
"COc1ccc([C@H]2[C@@H](C)C(C(=O)NC3CCCCCC3)=NN2c2ccc(Cl)cc2Cl)cc1 (relative stereo) [Example 11, cis-N-cycloheptyl-1-(2,4-dichlorophenyl)-5-(4-methoxyphenyl)-4-methyl-4,5-dihydro-1H-pyrazole-3-carboxamide]",78 ± 8,–,66,–
"C[C@H]1C(C(=O)N[C@@H]2CCCC[C@H]2O)=NN(c2ccc(Cl)cc2Cl)[C@H]1c1ccc(Cl)cc1 [Example 15, (4R,5R)-5-(4-chlorophenyl)-1-(2,4-dichlorophenyl)-N-((1R,2R)-2-hydroxycyclohexyl)-4-methyl-4,5-dihydro-1H-pyrazole-3-carboxamide]",–,–,–,good activity
"C[C@H]1C(C(=O)NC2CCCCCC2)=NN(c2ccc(Cl)cc2Cl)[C@H]1c1ccc(Cl)cc1 (relative stereo) [Example 1, cis-5-(4-chlorophenyl)-N-cycloheptyl-1-(2,4-dichlorophenyl)-4-methyl-4,5-dihydro-1H-pyrazole-3-carboxamide]",79 ± 18,31.9,–,–
"C[C@H]1C(C(=O)NC2CCCCCC2)=NN(c2ccc(Cl)cc2Cl)[C@H]1c1ccc(Br)cc1 (relative stereo) [Example 5, cis-5-(4-bromophenyl)-N-cycloheptyl-1-(2,4-dichlorophenyl)-4-methyl-4,5-dihydro-1H-pyrazole-3-carboxamide]",58.1,30,–,–

# Further lines, with some results ahead:
Antagonism (%) [1] [%],IC50 (CB1-Receptor; [3]) [nM],SMILES,IC50 (CB1-Receptor) [nM],activity reducing body weight [2]
37,–,"COc1ccc([C@H]2[C@@H](C)C(C(=O)N[C@H]3CCCC[C@@H]3O)=NN2c2ccc(Cl)cc2Cl)cc1 [Example 29, (4R,5R)-5-(4-methoxyphenyl)-1-(2,4-dichlorophenyl)-N-((1S,2S)-2-hydroxycyclohexyl)-4-methyl-4,5-dihydro-1H-pyrazole-3-carboxamide]",–,–
93 ± 8,69,"C[C@@H]1C(C(=O)N[C@H]2CCCC[C@@H]2O)=NN(c2ccc(Cl)cc2Cl)[C@@H]1c1ccc(Cl)cc1 [Example 18, (4S,5S)-5-(4-chlorophenyl)-1-(2,4-dichlorophenyl)-N-((1S,2S)-2-hydroxycyclohexyl)-4-methyl-4,5-dihydro-1H-pyrazole-3-carboxamide]",–,good activity
83 ± 0,112,"C[C@H]1C(C(=O)NC2CCCCCC2)=NN(c2ccc(Cl)cc2Cl)[C@H]1c1ccc(F)cc1 (relative stereo) [Example 7, cis-N-cycloheptyl-1-(2,4-dichlorophenyl)-5-(4-fluorophenyl)-4-methyl-4,5-dihydro-1H-pyrazole-3-carboxamide]",–,–
13,–,"C[C@H]1C(C(=O)N[C@H]2CCCC[C@@H]2O)=NN(c2ccc(Cl)cc2Cl)[C@H]1c1ccc(Cl)cc1 [Example 17, (4R,5R)-5-(4-chlorophenyl)-1-(2,4-dichlorophenyl)-N-((1S,2S)-2-hydroxycyclohexyl)-4-methyl-4,5-dihydro-1H-pyrazole-3-carboxamide]",–,–
85,–,"COc1ccc([C@@H]2[C@H](C)C(C(=O)N[C@H]3CCCC[C@@H]3O)=NN2c2ccc(Cl)cc2Cl)cc1 [Example 30, (4S,5S)-5-(4-methoxyphenyl)-1-(2,4-dichlorophenyl)-N-((1S,2S)-2-hydroxycyclohexyl)-4-methyl-4,5-dihydro-1H-pyrazole-3-carboxamide]",–,–
